Measurements taken from patent US20060235076A1, “Medicinal composition for treating infection with drug-resistant staphylococcus aureus” (priority 2003, published 2006).
≈ marks a conversion by molar mass, not a printed value. Read-outs that look alike come from different tables or passages of the source.

Experiments:
[1] = tested on: MRSA COL and MRSA Strain No. 5; assay: Potentiating effect of various gallates for antibacterial activity of oxacillin (MIC by broth microdilution method and FIC); type: cell-based, Staphylococcus aureus; conditions: combination with oxacillin
Experimental: According to the broth microdilution method defined by Japan Society of Chemotherapy, MIC was determined. CAMHA was prepared by adding 50 mg/l of Ca-ion, 25 mg/l of Mg-ion, and 2% of NaCl to MHB (Mueller-Hinton Broth), and it was used as a medium for use in the measurement of sensitivity. In 96-well microplates 100 μl of the medium for use in the measurement of sensitivity containing drugs was dispensed. The bacterial liquid was incubated at 37° C. overnight, diluted with saline and added to the plate so that the final concentration of the bacteria was 5×10^5 CFU/well. […] FIC (fractional inhibitory concentration) was calculated from the result and the potency of the effect of the combination use was evaluated.

MRSA and MSSA = assay: Antibacterial activity of gallic acid, various gallates and multivalent phenol derivatives alone (agar plate dilution method, MIC); type: cell-based, Staphylococcus aureus; conditions: Staphylococcus aureus; for MIC: read-out: MIC alone
Experimental: According to the agar plate dilution method defined by Japan Society of Chemotherapy, MIC (Minimum inhibitory concentration) was determined. CAMHA was prepared by adding 50 mg/l of Ca-ion, 25 mg/l of Mg-ion, and 2% of NaCl to Mueller-Hinton II Agar (MHA), and it was used as a medium for use in the measurement of sensitivity. The bacterial liquid was incubated at 37° C. overnight and diluted to 10^6 CFU/ml with saline.
MIC for gallic acid, various gallates and multivalent phenol derivatives alone with MRSA and MSSA were determined as described in experiment 2.

Compound | FIC value ([1]; MRSA COL) | FIC value ([1]; MRSA Strain No. 5) | MIC50 (MRSA and MSSA) [µg/mL] | MIC (MRSA and MSSA; COL) [µg/mL] | MIC (MRSA and MSSA; MRSA #1) [µg/mL] | MIC (MRSA and MSSA; MRSA #2) [µg/mL] | MIC (MRSA and MSSA; MRSA #3) [µg/mL] | MIC (MRSA and MSSA; MRSA #4) [µg/mL] | MIC (MRSA and MSSA; MRSA #5) [µg/mL] | MIC (MRSA and MSSA; MRSA #6) [µg/mL] | MIC (MRSA and MSSA; MRSA #7) [µg/mL] | MIC (MRSA and MSSA; MRSA #8) [µg/mL] | MIC (MRSA and MSSA; MRSA #9) [µg/mL] | MIC (MRSA and MSSA; MRSA #10) [µg/mL] | MIC (MRSA and MSSA; MRSA #12) [µg/mL] | MIC (MRSA and MSSA; MRSA #16) [µg/mL] | MIC (MRSA and MSSA; MRSA #17) [µg/mL] | MIC (MRSA and MSSA; MRSA #18) [µg/mL] | MIC (MRSA and MSSA; MRSA #20) [µg/mL] | MIC (MRSA and MSSA; MRSA #21) [µg/mL] | further results
CCCCCCCOC(=O)c1cc(O)c(O)c(O)c1 [Heptyl gallate, n-heptyl gallate] | 0.563 | 0.75 | 31.3 (≈ 117 µM) | 31.3 (≈ 117 µM) | 31.3 (≈ 117 µM) | 31.3 (≈ 117 µM) | 31.3 (≈ 117 µM) | 31.3 (≈ 117 µM) | 31.3 (≈ 117 µM) | 31.3 (≈ 117 µM) | 31.3 (≈ 117 µM) | 31.3 (≈ 117 µM) | 31.3 (≈ 117 µM) | 31.3 (≈ 117 µM) | 31.3 (≈ 117 µM) | 31.3 (≈ 117 µM) | 31.3 (≈ 117 µM) | 31.3 (≈ 117 µM) | 31.3 (≈ 117 µM) | 31.3 (≈ 117 µM) | MIC (MRSA and MSSA; ATCC 6538 / MRSA / MSSA): 31.3 µg/mL (≈ 117 µM); MIC (MRSA and MSSA; MRSA #22): 31.3 µg/mL (≈ 117 µM); MIC (MRSA and MSSA; MRSA #24): 31.3 µg/mL (≈ 117 µM); MIC (MRSA and MSSA; MSSA #1003): 31.3 µg/mL (≈ 117 µM); MIC (MRSA and MSSA; MSSA #1010): 31.3 µg/mL (≈ 117 µM); MIC (MRSA and MSSA; MSSA #1020): 31.3 µg/mL (≈ 117 µM); MIC (MRSA and MSSA; MSSA #1023): 31.3 µg/mL (≈ 117 µM); MIC (MRSA and MSSA; MSSA #1029): 31.3 µg/mL (≈ 117 µM); MIC (MRSA and MSSA; MSSA #1032): 31.3 µg/mL (≈ 117 µM)
CCCCCCOC(=O)c1cc(O)c(O)c(O)c1 [Hexyl gallate, n-hexyl gallate] | 0.5 | 0.502 | 62.5 (≈ 246 µM) | 31.3 (≈ 123 µM) | 62.5 (≈ 246 µM) | 31.3 (≈ 123 µM) | 31.3 (≈ 123 µM) | 31.3 (≈ 123 µM) | 31.3 (≈ 123 µM) | 31.3 (≈ 123 µM) | 31.3 (≈ 123 µM) | 31.3 (≈ 123 µM) | 31.3 (≈ 123 µM) | 31.3 (≈ 123 µM) | 62.5 (≈ 246 µM) | 62.5 (≈ 246 µM) | 62.5 (≈ 246 µM) | 62.5 (≈ 246 µM) | 62.5 (≈ 246 µM) | 62.5 (≈ 246 µM) | MIC (MRSA and MSSA; ATCC 6538 / MRSA / MSSA, ATCC6538): 31.3 µg/mL (≈ 123 µM); MIC (MRSA and MSSA; MRSA #22): 62.5 µg/mL (≈ 246 µM); MIC (MRSA and MSSA; MRSA #24): 62.5 µg/mL (≈ 246 µM); MIC (MRSA and MSSA; MSSA #1003): 62.5 µg/mL (≈ 246 µM); MIC (MRSA and MSSA; MSSA #1010): 62.5 µg/mL (≈ 246 µM); MIC (MRSA and MSSA; MSSA #1020): 62.5 µg/mL (≈ 246 µM); MIC (MRSA and MSSA; MSSA #1023): 62.5 µg/mL (≈ 246 µM); MIC (MRSA and MSSA; MSSA #1029): 62.5 µg/mL (≈ 246 µM); MIC (MRSA and MSSA; MSSA #1032): 62.5 µg/mL (≈ 246 µM)
